According to patent US12129223B2, “Lipids for use in lipid nanoparticle formulations” (Acuitas Therapeutics, Inc., priority 2021, dated 2024):

Key:
human IgG in mouse serum = assay: Immunoglobulin G (IgG) mRNA in vivo evaluation using lipid nanoparticle compositions; set-up: species or system mice; conditions: LNP with IgG mRNA, tail vein injection, serum 24 hours after administration; for Serum IgG @ 0.3 mg/kg: 0.3 mg mRNA/kg; for Serum IgG @ 1.0 mg/kg: 1.0 mg mRNA/kg
Experimental: (§1) A lipid of structure (I), DSPC, cholesterol and PEG-lipid are solubilized in ethanol at a molar ratio of 50:10:38.5:1.5 or 47.5:10:40.7:1.8. Lipid nanoparticles (LNP) are prepared at a total lipid to mRNA weight ratio of approximately 10:1 to 40:1. Briefly, the mRNA is diluted to 0.2 mg/mL in 10 to 50 mM citrate buffer, pH 4 or 10 to 25 mM acetate buffer, pH 4. Syringe pumps are used to mix the ethanolic lipid solution with the mRNA aqueous solution at a ratio of about 1:5 to 1:3 (vol/vol) with total flow rates above 15 mL/min. The ethanol is then removed and the external buffer replaced with PBS by dialysis. Finally, the lipid nanoparticles are filtered through a 0.2 µm pore sterile filter.
Studies are performed in 6-8 week old CD-1/ICR mice (Envigo) according to guidelines established by an institutional animal care committee (ACC) and the Canadian Council on Animal Care (CCAC). Varying doses of mRNA-lipid nanoparticle are systemically administered by tail vein injection and animals euthanized at a specific time point (e.g., 24 hours) post-administration. The whole blood is collected, and the serum subsequentially separated by centrifuging the tubes of the whole blood at 2000×g for 10 minutes at 4° C. and stored at −80° C. until use for analysis.
For immunoglobulin G (IgG) ELISA (Life Diagnostics Human IgG ELISA kit), the serum samples are diluted at 100 to 15000 folds with 1×diluent solution. 100 μL of diluted serum is dispensed into anti-human IgG coated 96-well plate in duplicate alongside human IgG standards and incubated in a plate shaker at 150 rpm at 25° C. for 45 minutes. The wells are washed 5 times with 1× wash solution using a plate washer (400 μL/well). 100 μL of HRP conjugate is added into each well and incubated in a plate shaker at the same condition above. The wells are washed 5 times again with 1× wash solution using a plate washer (400 μL/well). 100 μL of TMB reagent is added into each well and incubated in a plate shaker at the same condition above. The reaction is stopped by adding 100 μL of Stop solution to each well. The absorbance is read at 450 nm (A450) with a microplate reader. The amount of human IgG in mouse serum is determined by plotting A450 values for the assay standard against human IgG concentration.
(§2) Representative compounds of the disclosure shown in Table 2 were formulated using the following molar ratio: 50% cationic lipid/10% distearoylphosphatidylcholine (DSPC)/38.5% Cholesterol/1.5% PEG lipid 2-[2-(ω-methoxy(polyethyleneglycol2000)ethoxy]-N,N-ditetradecyl acetamide) or 47.5% cationic lipid/10% DSPC/40.7% Cholesterol/1.8% PEG lipid. Relative activity was determined by measuring luciferase expression in the liver 4 hours following administration via tail vein injection as described in Example 1 or by measuring the amount of human IgG in mouse serum as described in example 2. The activity was compared at a dose of 1.0 or 0.5 or 0.3 mg mRNA/kg and expressed as ng luciferase/g liver measured 4 hours after administration, as described in Example 1 or as μg IgG/mL serum measured 24 hours after administration, as described in Example 2. Compound numbers in Table 2 refer to the compound numbers of Table 1.

[1] = Determination of pKa of formulated lipids (TNS fluorescence assay in lipid nanoparticles); type: physicochemical; conditions: lipid nanoparticles (compound/DSPC/cholesterol/PEG-lipid), lipid formulated in LNP (lipid/DSPC/cholesterol/PEG-lipid), pH at half-maximal intensity
Experimental: As described elsewhere, the pKa of formulated lipids is correlated with the effectiveness of LNPs for delivery of nucleic acids (see Jayaraman et al, Angewandte Chemie, International Edition (2012), 51(34), 8529-8533; Semple et al, Nature Biotechnology 28, 172-176 (2010)). In some embodiments, the preferred range of pKa is ˜5 to ˜7. The pKa of each lipid is determined in lipid nanoparticles using an assay based on fluorescence of 2-(p-toluidino)-6-napthalene sulfonic acid (TNS). Lipid nanoparticles comprising compound of structure (I)/DSPC/cholesterol/PEG-lipid (50/10/38.5/1.5 or 47.5:10:40.7:1.8 mol %) in PBS at a concentration of 0.4 mM total lipid are prepared using the in-line process as described in Example 1. TNS is prepared as a 100 μM stock solution in distilled water. Vesicles are diluted to 24 μM lipid in 2 mL of buffered solutions containing 10 mM HEPES, 10 mM MES, 10 mM ammonium acetate, and 130 mM NaCl, where the pH ranged from 2.5 to 11. An aliquot of the TNS solution is added to give a final concentration of 1 μM and following vortex mixing fluorescence intensity is measured at room temperature in a SLM Aminco Series 2 Luminescence Spectrophotometer using excitation and emission wavelengths of 321 nm and 445 nm. A sigmoidal best fit analysis is applied to the fluorescence data and the pKa is measured as the pH giving rise to half-maximal fluorescence intensity.

[2] = tested on: luciferase expression in the liver; assay: Luciferase mRNA in vivo evaluation using lipid nanoparticle compositions; set-up: species or system mice; conditions: LNP with FLuc mRNA, tail vein injection, ng luciferase/g liver 4 hours after administration; for Liver Luc @ 0.3 mg/kg: 0.3 mg mRNA/kg; for Liver Luc @ 1.0 mg/kg: 1.0 mg mRNA/kg
Experimental: as §1
Studies are performed in 6-8 week old female C57BL/6 mice (Charles River) 8-10 week old CD-1 (Harlan) mice (Charles River) according to guidelines established by an institutional animal care committee (ACC) and the Canadian Council on Animal Care (CCAC). Varying doses of mRNA-lipid nanoparticle are systemically administered by tail vein injection and animals euthanized at a specific time point (e.g., 4 hours) post-administration. Liver and spleen are collected in pre-weighed tubes, weights determined, immediately snap frozen in liquid nitrogen and stored at −80° C. until processing for analysis.
For liver, approximately 50 mg is dissected for analyses in a 2 mL FastPrep tubes (MP Biomedicals, Solon OH). ¼″ ceramic sphere (MP Biomedicals) is added to each tube and 500 μL of Glo Lysis Buffer—GLB (Promega, Madison WI) equilibrated to room temperature is added to liver tissue. Liver tissues are homogenized with the FastPrep24 instrument (MP Biomedicals) at 2×6.0 m/s for 15 seconds. Homogenate is incubated at room temperature for 5 minutes prior to a 1:4 dilution in GLB and assessed using SteadyGlo Luciferase assay system (Promega). Specifically, 50 μL of diluted tissue homogenate is reacted with 50 μL of SteadyGlo substrate, shaken for 10 seconds followed by 5 minute incubation and then quantitated using a CentroXS^3 LB 960 luminometer (Berthold Technologies, Germany). The amount of protein assayed is determined by using the BCA protein assay kit (Pierce, Rockford, IL). Relative luminescence units (RLU) are then normalized to total μg protein assayed. To convert RLU to ng luciferase a standard curve is generated with QuantiLum Recombinant Luciferase (Promega).
The FLuc mRNA (L-6107) from Trilink Biotechnologies will express a luciferase protein, originally isolated from the firefly, Photinus pyralis. FLuc is commonly used in mammalian cell culture to measure both gene expression and cell viability. It emits bioluminescence in the presence of the substrate, luciferin. This capped and polyadenylated mRNA is fully substituted with 5-methylcytidine and pseudouridine.
as §2

| Structure (SMILES) | pKa [1] | Serum IgG @ 0.3 mg/kg (human IgG in mouse serum) [µg/mL] | Serum IgG @ 1.0 mg/kg (human IgG in mouse serum) [µg/mL] | Liver Luc @ 0.3 mg/kg [2] [ng/g] | Liver Luc @ 1.0 mg/kg [2] [ng/g] |
| --- | --- | --- | --- | --- | --- |
| CCCCCCCCCCCCN(CCCCCCCCCCCC)C(=O)CCCCCN(C)CCCCCC(=O)N(CCCCCCCCCCCC)CCCCCCCCCCCC [Compound I-11, 6,6′-(methylazanediyl)bis(N,N-didodecylhexanamide)] | 6.67 | 8.22 ± 0.84 | 47.68 ± 5.26 |  |  |
| CCCCCCCCCCCCN(CCCCCCCCCCCC)C(=O)CCCCCCCN(CCO)CCCCCCCC(=O)N(CCCCCCCCCCCC)CCCCCCCCCCCC [Compound I-37, 8,8′-((2-hydroxyethyl)azanediyl)bis(N,N-didodecyloctanamide)] | 6.39 | 1.75 ± 0.58 | 10.05 ± 2.32 |  |  |
| CCCCCCCCCCCCN(CCCCCCCCCCCC)C(=O)CCCCCN(CCCCCCO)CCCCCC(=O)N(CCCCCCCCCCCC)CCCCCCCCCCCC [Compound I-38, 6,6′-((6-hydroxyhexyl)azanediyl)bis(N,N-didodecylhexanamide)] | 6.48 | 4.71 ± 0.46 | 45.87 ± 2.33 |  |  |
| CCCCCCCCCCCCN(CCCCCCCCCCCC)C(=O)CCCCCCCN(C)CCCCCCCC(=O)N(CCCCCCCCCCCC)CCCCCCCCCCCC [Compound I-40, 8,8′-(methylazanediyl)bis(N,N-didodecyloctanamide)] | 6.17 | 16.72 ± 5.38 | 101.96 ± 4.12 |  |  |
| CCCCCCCCCCN(CCCCCCCCCC)C(=O)CCCCCCCN(CCCO)CCCCCCCC(=O)N(CCCCCCCCCC)CCCCCCCCCC [Compound I-41, 8,8′-((3-hydroxypropyl)azanediyl)bis(N,N-didecyloctanamide)] | 6.6 | 4.78 ± 1.65 |  |  |  |
| CCCCCCCCCCN(CCCCCCCCCC)C(=O)CCCCCCCN(CCCCCCCC(=O)N(CCCCCCCCCC)CCCCCCCCCC)CCOCCO [Compound I-42, 8,8′-((2-(2-hydroxyethoxy)ethyl)azanediyl)bis(N,N-didecyloctanamide)] | 6.66 | 3.13 ± 0.27 | 12.42 ± 3.81 |  |  |

Second part, led by results:

| pKa [1] | Structure (SMILES) | Serum IgG @ 0.3 mg/kg (human IgG in mouse serum) [µg/mL] | Serum IgG @ 1.0 mg/kg (human IgG in mouse serum) [µg/mL] | Liver Luc @ 0.3 mg/kg [2] [ng/g] | Liver Luc @ 1.0 mg/kg [2] [ng/g] |
| --- | --- | --- | --- | --- | --- |
| 6.02 | CCCCCCCCCCN(CCCCCCCCCC)C(=O)CCCCCCCN(CCCCCCCC(=O)N(CCCCCCCCCC)CCCCCCCCCC)CCCC(C)(C)CO [Compound I-43, 8,8′-((5-hydroxy-4,4-dimethylpentyl)azanediyl)bis(N,N-didecyloctanamide)] | 2.45 ± 0.66 | 9.97 ± 1.17 |  |  |
| 6.69 | CCCCCCCCCCN(CCCCCCCCCC)C(=O)CCCCCCCN(CCCCCCCC(=O)N(CCCCCCCCCC)CCCCCCCCCC)CCCn1ccnc1C [Compound I-44, 8,8′-((3-(2-methyl-1H-imidazol-1-yl)propyl)azanediyl)bis(N,N-didecyloctanamide)] | 0.59 ± 0.11 | 1.86 ± 0.27 |  |  |
| 5.96 | CCCCCCCCCCN(CCCCCCCCCC)C(=O)CCCCCCCN(CCCCCCCO)CCCCCCCC(=O)N(CCCCCCCCCC)CCCCCCCCCC [Compound I-45, 8,8′-((7-hydroxyheptyl)azanediyl)bis(N,N-didecyloctanamide)] | 3.03 ± 0.66 | 13.00 ± 2.05 |  |  |
| 6.63 | CCCCCCCCCCN(CCCCCCCCCC)C(=O)CCCCCCCN(CCCCCCCC(=O)N(CCCCCCCCCC)CCCCCCCCCC)CCCn1ccnc1 [Compound I-48, 8,8′-((3-(1H-imidazol-1-yl)propyl)azanediyl)bis(N,N-didecyloctanamide)] | 1.02 ± 0.20 | 3.40 ± 0.87 |  |  |
| 6.73 | CCCCCCCCCCN(CCCCCCCCCC)C(=O)CCCCCCCN(CCCCCCCC(=O)N(CCCCCCCCCC)CCCCCCCCCC)CCCNc1c(NC)c(=O)c1=O [Compound I-50, 8,8′-((3-((2-(methylamino)-3,4-dioxocyclobut-1-en-1-yl)amino)propyl)azanediyl)bis(N,N-didecyloctanamide)] | 1.32 ± 0.28 | 11.05 ± 2.19 |  |  |
| 6.38 | CCCCCCCCCCN(CCCCCCCCCC)C(=O)CCCCCCCCCN(CCCCCCCCCC(=O)N(CCCCCCCCCC)CCCCCCCCCC)CCCNc1c(NC)c(=O)c1=O [Compound I-60, 10,10′-((3-((2-(methylamino)-3,4-dioxocyclobut-1-en-1-yl)amino)propyl)azanediyl)bis(N,N-didecyldecanamide)] |  |  | 2176 ± 162 | 9178 ± 2483 |
| 6.33 | CCCCCCCCCCN(CCCCCCCCN(C)CCCCCCCCN(CCCCCCCCCC)C(=O)CCCCCCCCC)C(=O)CCCCCCCCC [Compound I-65] |  |  | 3172 ± 658 | 24740 ± 6297 |
| 6.17 | CCCCCCCCC(CCCCCC)C(=O)N(C)CCCCCCCCN(C)CCCCCCCCN(C)C(=O)C(CCCCCC)CCCCCCCC (centres unmarked) [Compound I-70, N,N′-((methylazanediyl)bis(octane-8,1-diyl))bis(2-hexyl-N-methyldecanamide)] |  |  | 7516 ± 1487 | 33238 ± 9902 |
